In assay [1] the target is Cy5-labelled Mcl1 (amino acids 171-321) C286S protein (UniProtKB Q07820) (Homo sapiens (Human), UniProt Q07820, C286S). The experiment in a line: Inhibition of Mcl-1 by the fluorescence quenching assay (Example A, Method B). Format: binding. An excerpt:
Fluorescence quenching assay measures the change fluorescence intensity of C-terminally Cy5-labelled Mcl1 (amino acids 171-321) C286S protein (UniProtKB® primary accession number Q07820) having an amino acid sequence:
which is linked at the C-terminus to the amino acid X which corresponds to a cysteine labelled on the sulfur with sulpho-Cyanine5 from Lumiprobe GmbH catalogue number 13380, upon binding of a C-terminally labelled peptide derived from PUMA (UniProtKB® primary accession number Q9BXH1) having an amino acid sequence:
which is linked at the C-terminus to the amino acid X′, where X′ is cysteine labelled on the sulfur with TQ5WS from AAT Bioquest catalogue number 2079.
The addition of a compound which binds competitively to the same site as the peptide will result in an increase in the fluorescence intensity of the protein due to displacement of the fluorescence quencher.
An 11-point serial dilution of each compound was prepared in DMSO, the final buffer conditions were 10 mM 4-(2-hydroxyethyl)-1-piperazineethanesulfonic acid [HEPES], 150 mM NaCl, 0.05% Tween 20, pH 7.4 and 5% DMSO. The final protein concentration in the assay was 1 nM with the peptide present at 10, 20 or 400 nM. The experiments were incubated for 2 hours at room temperature before fluorescence intensity was measured on a Biotek SynergyNeo plate reader (Excitation 620 nm, emission 680 nm). The dose response curves were plotted with XL-Fit software using a 4-Parameter Logistic Model (Sigmoidal DoseResponse Model) and the inhibitory concentrations that gave a 50% increase in fluorescence intensity was determined (IC50). The Ki values were determined from the IC50 values according to Cer et al, Nucleic Acids Res, 2009, 37 (WebServer issue): W441-W445. Inhibition constants (Ki) are determined from complete binding inhibition curves (cKi) or from estimated from incomplete binding inhibition curves (eKi) in most cases due to low activity.

For the next assay, the target named is Mcl-1 protein (UniProtKB Q07820) (Homo sapiens (Human), UniProt Q07820). As to the kind of experiment: Inhibition of Mcl-1 by the fluorescence polarisation assay (Example A, Method A). The class given is binding. The conditions noted are these: fluorescence polarization assay. The method, boiled down:
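Protein (5 nM) and fluorescein-tagged peptide tracer (1 nM) incubated with 11-point compound series for 2 h at room temperature in HEPES/NaCl/Tween 20 buffer, pH 7.4, 5% DMSO. Displacement read as decrease in polarisation; IC50 fitted by 4-parameter logistic, converted to Ki (cKi or eKi).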
In general terms: Fluorescence polarisation rises when a labelled molecule tumbles more slowly, as on binding a larger partner.

Like-named read-outs stand apart in the source and are kept apart here.

Cy5-labelled Mcl1 (amino acids 171-321) C286S protein, sequence (Q07820 171-321 C286S): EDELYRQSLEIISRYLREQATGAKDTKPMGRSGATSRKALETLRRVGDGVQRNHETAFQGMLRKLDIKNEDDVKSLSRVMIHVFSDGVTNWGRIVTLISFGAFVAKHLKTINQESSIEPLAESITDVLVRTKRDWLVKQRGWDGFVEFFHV
Mcl-1 protein, sequence (Q07820 whole entry): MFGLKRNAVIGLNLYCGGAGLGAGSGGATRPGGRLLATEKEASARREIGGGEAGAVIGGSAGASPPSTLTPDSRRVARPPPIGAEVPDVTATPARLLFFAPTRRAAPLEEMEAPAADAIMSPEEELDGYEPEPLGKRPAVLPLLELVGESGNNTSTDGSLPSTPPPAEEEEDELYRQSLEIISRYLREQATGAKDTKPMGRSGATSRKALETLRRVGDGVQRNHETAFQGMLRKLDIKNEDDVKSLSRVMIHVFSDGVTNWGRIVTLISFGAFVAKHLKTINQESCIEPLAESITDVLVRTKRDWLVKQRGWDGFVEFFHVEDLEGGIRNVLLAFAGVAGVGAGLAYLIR

As a reminder, the Ki is a dissociation constant, usually derived from enzyme kinetics or from competition with a known ligand. Turning to `O=C(O)[C@]1(Nc2cccc(Cl)c2)CC[C@@]2(CC1)c1ccccc1CC2CC(COCCN1CCOCC1)COc1ccnc2c1CCC2` (mixture of isomers) [Example 496, (1r,4r)-4-(3-chloroanilino)-2′-(2-{[(6,7-dihydro-5H-cyclopenta[b]pyridin-4-yl)oxy]methyl}-3-[2-(morpholin-4-yl)ethoxy]propyl)-2′,3′-dihydrospiro[cyclohexane-1,1′-indene]-4-carboxylic acid], the inhibition constant Ki in assay [1] worked out at 1.8 nM.

Consider `O=C(O)[C@]1(Nc2cccc(Cl)c2)CC[C@@]2(CC1)c1ccccc1CC2CC(F)COc1ccnc2c1CCC2` (mixture of isomers) [Example 504, (1r,4r)-4-(3-chloroanilino)-2′-{3-[(6,7-dihydro-5H-cyclopenta[b]pyridin-4-yl)oxy]-2-fluoropropyl}-2′,3′-dihydrospiro[cyclohexane-1,1′-indene]-4-carboxylic acid], for which the Ki in assay [1] turned out to be 29.9 nM.

In the case of `O=C(O)[C@]1(Nc2cccc(Cl)c2)CC[C@@]2(CC1)c1ccccc1CC2CC(CO)COc1ccnc2c1CCC2` (single isomer, unassigned) [Example 499, (1r,4r)-4-(3-chloroanilino)-2′-(2-{[(6,7-dihydro-5H-cyclopenta[b]pyridin-4-yl)oxy]methyl}-3-hydroxypropyl)-2′,3′-dihydrospiro[cyclohexane-1,1′-indene]-4-carboxylic acid], the Ki in assay [1] came out at 74.1 nM.

On to `O=C(O)[C@]1(Nc2cccc(Cl)c2)CC[C@@]2(CC1)c1ccccc1CC2CC(CO)COc1ccnc2c1CCC2` (single isomer, unassigned) [Example 500, (1r,4r)-4-(3-chloroanilino)-2′-(2-{[(6,7-dihydro-5H-cyclopenta[b]pyridin-4-yl)oxy]methyl}-3-hydroxypropyl)-2′,3′-dihydrospiro[cyclohexane-1,1′-indene]-4-carboxylic acid], for which the Ki in assay [1] stood at 15.5 nM.

Consider `O=C(O)[C@]1(Nc2cccc(Cl)c2)CC[C@@]2(CC1)c1ccccc1CC2CC(COc1ccnc2c1CCCC2)C(F)F` (single isomer, unassigned) [Example 512, (1r,4r)-4-(3-chloroanilino)-2′-(3,3-difluoro-2-{[(5,6,7,8-tetrahydroquinolin-4-yl)oxy]methyl}propyl)-2′,3′-dihydrospiro[cyclohexane-1,1′-indene]-4-carboxylic acid], for which the Ki in assay [1] is 22.7 nM.

`O=C(O)[C@]1(Nc2cccc(Cl)c2)CC[C@@]2(CC1)c1ccccc1CC2CC(COc1ccnc2c1CCCC2)C(F)F` (single isomer, unassigned) [Example 513, (1r,4r)-4-(3-chloroanilino)-2′-(3,3-difluoro-2-{[(5,6,7,8-tetrahydroquinolin-4-yl)oxy]methyl}propyl)-2′,3′-dihydrospiro[cyclohexane-1,1′-indene]-4-carboxylic acid]: the Ki in assay [1] was determined as 27.9 nM.

For `CC(CC1Cc2ccccc2[C@]12CC[C@@](Nc1cccc(Cl)c1)(C(=O)O)CC2)C(C)Oc1ccnc2c1CCC2` (single isomer, unassigned) [Example 614, (1r,4r)-4-(3-chloroanilino)-2′-{3-[(6,7-dihydro-5H-cyclopenta[b]pyridin-4-yl)oxy]-2-methylbutyl}-2′,3′-dihydrospiro[cyclohexane-1,1′-indene]-4-carboxylic acid], the Ki in assay [1] was 123 nM.

For `CC(CC1Cc2ccccc2[C@]12CC[C@@](Nc1cccc(Cl)c1)(C(=O)O)CC2)C(C)Oc1ccnc2c1CCC2` (single isomer, unassigned) [Example 615, (1r,4r)-4-(3-chloroanilino)-2′-{3-[(6,7-dihydro-5H-cyclopenta[b]pyridin-4-yl)oxy]-2-methylbutyl}-2′,3′-dihydrospiro[cyclohexane-1,1′-indene]-4-carboxylic acid], the Ki in assay [1] was 241 nM.

For `CC(CC1Cc2ccccc2[C@]12CC[C@@](Nc1cccc(Cl)c1)(C(=O)O)CC2)C(C)Oc1ccnc2c1CCC2` (single isomer, unassigned) [Example 617, (1r,4r)-4-(3-chloroanilino)-2′-{3-[(6,7-dihydro-5H-cyclopenta[b]pyridin-4-yl)oxy]-2-methylbutyl}-2′,3′-dihydrospiro[cyclohexane-1,1′-indene]-4-carboxylic acid], the Ki in assay [1] is 93.5 nM.

For the compound `CC1CCN(C)c2nccc(OC[C@H](C)C[C@H]3Cc4ccccc4[C@]34CC[C@@](Nc3cccc(Cl)c3)(C(=O)O)CC4)c21` (single isomer, unassigned) [Example 644], in assay [1], the Ki was 2.8 nM.

Take `C[C@@H](COc1ccnc2ccsc12)CN1Cc2ccccc2[C@]12CC[C@@](Nc1cccc(Cl)c1)(C(=O)O)CC2` [Example 38, (1s,4S)-4-(3-chloroanilino)-2′-{(2R)-2-methyl-3-[(thieno[3,2-b]pyridin-7-yl)oxy]propyl}-2′,3′-dihydrospiro[cyclohexane-1,1′-isoindole]-4-carboxylic acid]: the inhibition constant Ki in assay [1] (Ki determined from IC50) turned out to be 14.4 nM.

Take `C[C@@H](COc1cccc2[nH]ccc12)CN1Cc2ccccc2[C@]12CC[C@@](Nc1cccc(Cl)c1)(C(=O)O)CC2` [Example 39, (1s,4S)-4-(3-chloroanilino)-2′-{(2R)-3-[(1H-indol-4-yl)oxy]-2-methylpropyl}-2′,3′-dihydrospiro[cyclohexane-1,1′-isoindole]-4-carboxylic acid]: the Ki in assay [1] (Ki determined from IC50) turned out to be 44.9 nM.

As for `N#Cc1cccc(N[C@]2(C(=O)O)CC[C@@]3(CC2)C(Br)=Cc2ccccc23)c1` [Example 82, (1s,4s)-2′-bromo-4-(3-cyanoanilino)spiro[cyclohexane-1,1′-indene]-4-carboxylic acid], the Ki in assay [1] (Ki determined from IC50) came to 437 nM.

Turning to `O=C(O)[C@]1(Nc2cccc(C(F)(F)F)c2)CC[C@]2(CC1)C(Br)=Cc1ccccc12` [Example 85, (1s,4s)-2′-bromo-4-[3-(trifluoromethyl)anilino]spiro[cyclohexane-1,1′-indene]-4-carboxylic acid], the Ki in assay [1] (Ki determined from IC50) was determined as 424 nM.

With `Cc1cccc(N[C@]2(C(=O)O)CC[C@@]3(CC2)C(Br)=Cc2ccccc23)c1` [Example 88, (1s,4s)-2′-bromo-4-(3-methylanilino)spiro[cyclohexane-1,1′-indene]-4-carboxylic acid], in assay [1] (Ki determined from IC50), the Ki is 503 nM.

With `Cc1cnccc1OC[C@H](C)CC1Cc2ccccc2[C@]12CC[C@@](Nc1cccc(Cl)c1)(C(=O)O)CC2` (stereo partly drawn) [Example 576, (1r,4R)-4-(3-chloroanilino)-2′-{(2R)-2-methyl-3-[(3-methylpyridin-4-yl)oxy]propyl}-2′,3′-dihydrospiro[cyclohexane-1,1′-indene]-4-carboxylic acid], the Ki on Mcl-1 protein stood at 124 nM.

With `C[C@@H](COc1ccnc(CO)c1)C[C@H]1Cc2ccccc2[C@]12CC[C@@](Nc1cccc(Cl)c1)(C(=O)O)CC2` [Example 579, (1r,2′S,4S)-4-(3-chloroanilino)-2′-[(2R)-3-{[2-(hydroxymethyl)pyridin-4-yl]oxy}-2-methylpropyl]-2′,3′-dihydrospiro[cyclohexane-1,1′-indene]-4-carboxylic acid], at Mcl-1 protein, the inhibitory constant (Ki) is 216 nM.

Take `C[C@@H](COc1ccnc(C(F)F)c1)C[C@H]1Cc2ccccc2[C@]12CC[C@@](Nc1cccc(Cl)c1)(C(=O)O)CC2` [Example 581, (1r,2′S,4S)-4-(3-chloroanilino)-2′-[(2R)-3-{[2-(difluoromethyl)pyridin-4-yl]oxy}-2-methylpropyl]-2′,3′-dihydrospiro[cyclohexane-1,1′-indene]-4-carboxylic acid]: on Mcl-1 protein, the Ki stood at 47.5 nM.

In the case of `C[C@@H](COc1ccnc(N)c1)C[C@H]1Cc2ccccc2[C@]12CC[C@@](Nc1cccc(Cl)c1)(C(=O)O)CC2` [Example 583, (1r,2′S,4S)-2′-{(2R)-3-[(2-aminopyridin-4-yl)oxy]-2-methylpropyl}-4-(3-chloroanilino)-2′,3′-dihydrospiro[cclohexane-1,1′-indene]-4-carboxylic acid], the Ki at Mcl-1 protein was determined as 191 nM.

Consider `C[C@H](COc1ccnc2ccsc12)CC1Cc2ccccc2[C@]12CC[C@@](Nc1cccc(Cl)c1)(C(=O)O)CC2` (stereo partly drawn) [Example 592, (1r,4S)-4-(3-chloroanilino)-2′-{(2S)-2-methyl-3-[(thieno[3,2-b]pyridin-7-yl)oxy]propyl}-2′,3′-dihydrospiro[cyclohexane-1,1′-indene]-4-carboxylic acid], for which, at Mcl-1 protein, the Ki was 710 nM.

On to `CC(F)(COc1ccnc2c1CCC2)CC1Cc2ccccc2[C@]12CC[C@@](Nc1cccc(Cl)c1)(C(=O)O)CC2` (stereo partly drawn) [Example 607, (1r,4r)-4-(3-chloroanilino)-2′-{3-[(6,7-dihydro-5H-cyclopenta[b]pyridin-4-yl)oxy]-2-fluoro-2-methylpropyl}-2′,3′-dihydrospiro[cyclohexane-1,1′-indene]-4-carboxylic acid], for which, on Mcl-1 protein, the Ki is 164 nM.

The record behind these values is patent US20240150293A1, “SPIROCYCLOHEXANE DERIVATIVES, PHARMACEUTICAL COMPOSITIONS CONTAINING THEM AND THEIR USES AS ANTI-APOPTOTIC INHIBITORS” (LES LABORATOIRES SERVIER, priority 2021, published 2024).
